What was measured:
ICR male mice = assay: Tetrad Assay (safety)
[1] = tested on: MOG induced chronic progressive EAE; assay: MOG induced chronic-progressive EAE; conditions: for animals that reached a clinical score of 0 (fully recovered): 13 animals per group
iNOS = iNOS gene expression in LPS activated RAW 264.7 macrophages (real-time RT-PCR); assay type: cell-based, mouse
Protocol: RAW 264.7 macrophages, a mouse cell line (ATCC # TIB 71), were grown in Dulbecco's modified Eagle's medium (DMEM) with 4 mM L-glutamine adjusted to contain 1.5 g/L sodium bicarbonate, 4.5 g/L glucose, and 10% heat inactivated fetal bovine serum. Cells were grown in tissue culture flasks and seeded at appropriate density into 6 wells tissue culture plates. Four million Raw cells in half a milliliter were stimulated with 1 μg/ml Lipopolysaccharide E. coli 055:B5 (DIFCO Laboratories). The mouse macrophages were pre-treated for one hour with controls or 10 μM of test compounds, and later on activated with LPS. RNA samples were extracted from the cells 3 hrs after activation and iNOS gene expression levels were analyzed by real-time RT-PCR as previously described. For western blot analysis, compounds were tested at 1, 5 and 10 μM and cells were harvested 24 hrs after LPS stimulation. Supernatant were collected and NO secretion was analyzed using ELISA. Cells were washed 3 times with cold PBS, scrapped and lyzed in 100 μl cell lysis buffer containing 20 mM HEPES, pH 7.6, 150 mM NaCl, 1.5 mM MgCl2, 0.2 mM EDTA, 1% Triton X-100, 10% glycerol, 1 mM DTT, 1 mM PMSF, 10 μg/ml aprotinin. 5 µg/ml leupeptin, 10 mM p-nitrophenyl phosphate, 100 mM β-glycerophosphate, 1 mM sodium fluoride, and 0.1 μM sodium orthovanadate. Cells were lyzed on ice for 10 minutes before further processing.
The results of this experiment are expressed as fold activation of iNOS over non-activated macrophages, after normalization to cyclophilin A expression. Compound 18A inhibits 63% of iNOS gene expression, and compounds 18B, 18E and 18F inhibit 55%, 25% and 100% respectively. […] This surprising observation strengthen the fact that compounds of the invention, though chemically related, have distinct and unexpected properties.

[2] = tested on: Taxol® induced neuropathic pain; assay: Taxol® induced neuropathic pain; assay type: in vivo, Sprague Dawley rats
Protocol: Male Sprague Dawley rats (average body weight 150-200 g, Harlan, Israel) were administered i.p. with 6 mg/kg Taxol® (Bristol Myers Squibb, USA) every other day for 9 days. On day 13, baseline pain threshold was measured. One hour later, the animals were administered with 5 ml/kg i.p. of vehicle (PB) only and pain threshold was re-established. After an additional hour animals were treated with various doses of compound 18F ranging from 0.5 mg/kg up to 10 mg/kg administered i.p. Morphine at 5 mg/kg i.p. and gabapentin at 100 mg/kg i.p served as positive controls. Each treatment group comprised at least eight animals. One hour post drug administration pain threshold was monitored using thermal and mechanical stimuli as previously described. At the end of the study, rats were euthanized with sodium pentobarbitone 100 mg/kg i.p. Sample rats were then transfused with saline and heparinized 4% formaldehyde solution. The L4-L5 area of the spinal cord and the sciatic nerve were taken for histopathology assessment.
The time latencies for thermal hyperalgesia, and force needed to induce pain of the different treatment groups are compared, using one way ANOVA (analysis of variance), followed by Duncan's post hoc test. A p<0.05 value was considered statistically significant and is indicated on the figure by an asterisk over the relevant treatment group.

## CCCCCCC(C)(C)c1cc(O)c([C@H]2CC(=O)C3CC2C3(C)C)c(OC(=O)/C=C/C(=O)O)c1 (single isomer, unassigned; (-)) [Compound 18F, (−)-4-{4-[1,1-Dimethylheptyl]-2-fumarate-6-hydroxy-phenyl}-6,6-dimethyl-bicyclo[3.1.1]heptan-2-one]
ICR male mice; 30, 60, 80 and 100 mg/kg p.o.
  body temperature: transient hypothermia
ICR male mice; 30 and 60 mg/kg p.o.
  time to regain normothermia: ≤ 24 h
ICR male mice; 80 and 100 mg/kg p.o.
  body temperature below baseline at the end of follow-up period: 2 °C
ICR male mice; doses of up to 60 mg/kg p.o.
  safety at therapeutically effective doses: found to be safe
ICR male mice; p.o., up to maximal dose tested of 100 mg/kg
  catalepsy and spontaneous or forced locomotor activity: no effect
[1]; 20 mg/kg p.o. daily for 19 days from day 13
  reduction of clinical score, first peak day 14 to 25: about 12%
[1]; 20 mg/kg p.o.
  animals that reached a clinical score of 0 (fully recovered): 8%
[1]; 40 mg/kg p.o. daily for 19 days from day 13
  reduction of clinical score, first peak day 14 to 25: 43%
[1]; 40 mg/kg p.o.
  animals that reached a clinical score of 0 (fully recovered): 23%
[1]; 60 mg/kg p.o.
  clinical score for about a week from day 36: about 0.2
  reduction of clinical score as compared to control, week from day 36: 80%
  animals that reached a clinical score of 0 (fully recovered): 31%
[1]; 60 mg/kg p.o. daily for 19 days from day 13
  reduction of clinical score, first peak day 14 to 25: 44%
[1]; 60 mg/kg p.o., 20 days after treatment cessation
  clinical score below control at the end of the study: 30%
[1]; 60 mg/kg p.o., 20 days after treatment cessation, control 0.95
  clinical score at the end of the study: 0.65
[1]; 60 mg/kg p.o., control about 1.2
  plateau level clinical score: about 0.6
[1]; high doses p.o., first 10 minutes post administration, eliminated from day 4
  side effects: Some minor and transient side effects were observed
[1]; highest dose (60 mg/kg p.o.), treatment from day 13
  day of first full recovery: 16 days
[1]; intermediate dose (40 mg/kg p.o.)
  day of first full recovery: 17 days
[1]; lowest dose (20 mg/kg p.o.)
  day of first full recovery: 22 days
[1]; separate study, 40 mg/kg p.o.
  reduction of AUC as compared to control group: 36%
[1]; separate study, daily from day 13, 18F 40 mg/kg p.o., COP-1 25 mg/kg s.c., IFN-β 10,000 IU per mouse s.c., control 24.14
  AUC of clinical score: 15.47 units
[1]; separate study, daily from day 13, 18F 40 mg/kg p.o., COP-1 25 mg/kg s.c., control above 2.4
  mean group clinical score at the end of the study: 1.25
iNOS; 5 μM of SR-141716 and SR-144528
  effect of CB1 or CB2 antagonists on iNOS inhibiting activity: only blocked by CB2 antagonists
iNOS; 10 μM, 1 h pre-treatment, 3 hrs after LPS activation
  inhibition of iNOS gene expression: 100%
[2]; 10 mg/kg i.p., baseline 15 gm, untreated 5 gm
  effect on pain threshold: increased the pain threshold back to pre-Taxol® baseline
[2]; 1, 5 and 10 mg/kg i.p.
  effect on pain threshold versus vehicle: statistically significant from the vehicle treated animals

Reference: patent US20090068143A1, “ORALLY EFFECTIVE C[…]” (priority 2005, published 2009)
